Measured values reported in US9309225B2, “N-((1-benzyl-1H-1,2,3-triazol-4-yl)methyl)arylamide compounds as potential anticancer agents and a process for the preparation thereof” (COUNCIL OF SCIENTIFIC & INDUSTRIAL RESEARCH, priority 2013, dated 2016).

What was measured:
[1] = test system: HL-60(TB); experiment: NCI sixty human tumor cell line screen, Leukemia panel; assay type: cell-based; settings: NCI protocol
Method: (§1) The in vitro anticancer activity studies for these N-((1-benzyl-1H-1,2,3-triazol-4-yl)methyl) arylamide analogues were carried out at the National Cancer Institute, USA.
(§2) The N-((1-benzyl-1H-1,2,3-triazol-4-yl)methyl)arylamide analogues have been tested at NCI, USA, against sixty human tumor cell lines derived from nine cancer types (leukemia, non-small cell lung cancer, colon cancer, CNS cancer, melanoma cancer, ovarian cancer, renal cancer, prostate cancer and breast cancer). For these compounds results are expressed as growth inhibition (GI50) values as per NCI protocol.

[2] = test system: A549/ATCC; experiment: NCI sixty human tumor cell line screen, Non-small-cell-lung panel; assay type: cell-based; settings: NCI protocol
Method: as §1, §2

[3] = test system: EKVX; experiment: as above; assay type: cell-based; settings: NCI protocol
Method: as §1, §2

[4] = test system: HOP-62; experiment: as above; assay type: cell-based; settings: HOP-62, Non-small-cell-lung, NCI protocol
Method: as §1, §2

[5] = test system: NCI-H226; experiment: as above; assay type: cell-based; settings: NCI protocol
Method: as §1, §2

[6] = test system: NCI-H460; experiment: as above; assay type: cell-based; settings: NCI protocol
Method: as §1, §2

[7] = test system: NCI-H522; experiment: as above; assay type: cell-based; settings: NCI protocol
Method: as §1, §2

[8] = test system: COLO 205; experiment: NCI sixty human tumor cell line screen, Colon panel; assay type: cell-based; settings: COLO 205, Colon, NCI protocol
Method: as §1, §2

[9] = test system: HCT-116; experiment: as above; assay type: cell-based; settings: HCT-116, Colon, NCI protocol
Method: as §1, §2

[10] = test system: HT29; experiment: as above; assay type: cell-based; settings: HT-29, NCI protocol
Method: as §1, §2

[11] = test system: KM12; experiment: as above; assay type: cell-based; settings: NCI protocol
Method: as §1, §2

[12] = test system: SW-620; experiment: as above; assay type: cell-based; settings: SW-620, Colon, NCI protocol
Method: as §1, §2

[13] = test system: SF-268; experiment: NCI sixty human tumor cell line screen, CNS panel; assay type: cell-based; settings: SF-268, CNS, NCI protocol
Method: as §1, §2

[14] = test system: SF-295; experiment: NCI sixty human tumor cell line screen, CNS panel; assay type: cell-based; settings: SF-295, CNS, NCI protocol
Method: as §1, §2

[15] = test system: SF-539; experiment: NCI sixty human tumor cell line screen, CNS panel; assay type: cell-based; settings: SF-539, CNS, NCI protocol
Method: as §1, §2

[16] = test system: SNB-19; experiment: NCI sixty human tumor cell line screen, CNS panel; assay type: cell-based; settings: SNB-19, CNS, NCI protocol
Method: as §1, §2

[17] = test system: SNB-75; experiment: NCI sixty human tumor cell line screen, CNS panel; assay type: cell-based; settings: SNB-75, CNS, NCI protocol
Method: as §1, §2

[18] = test system: U251; experiment: NCI sixty human tumor cell line screen, CNS panel; assay type: cell-based; settings: U-251, NCI protocol
Method: as §1, §2

[19] = test system: LOX IMVI; experiment: NCI sixty human tumor cell line screen, Melanoma panel; assay type: cell-based; settings: NCI protocol
Method: as §1, §2

[20] = test system: M14; experiment: as above; assay type: cell-based; settings: NCI protocol
Method: as §1, §2

[21] = test system: MDA-MB-435; experiment: as above; assay type: cell-based; settings: MDA-MB-435, Melanoma, NCI protocol
Method: as §1, §2

[22] = test system: SK-MEL-28; experiment: as above; assay type: cell-based; settings: SK-MEL-28, Melanoma, NCI protocol
Method: as §1, §2

[23] = test system: SK-MEL-2; experiment: as above; assay type: cell-based; settings: SK-MEL-2, Melanoma, NCI protocol
Method: as §1, §2

[24] = test system: SK-MEL-5; experiment: as above; assay type: cell-based; settings: SK-MEL-5, Melanoma, NCI protocol
Method: as §1, §2

[25] = test system: UACC-62; experiment: as above; assay type: cell-based; settings: UACC-62, Melanoma, NCI protocol
Method: as §1, §2

[26] = test system: NCI/ADR-RES; experiment: NCI sixty human tumor cell line screen, Ovarian panel; assay type: cell-based; settings: NCI protocol
Method: as §1, §2

[27] = test system: OVCAR-3; experiment: as above; assay type: cell-based; settings: OVCAR-3, Ovarian, NCI protocol
Method: as §1, §2

[28] = test system: OVCAR-4; experiment: as above; assay type: cell-based; settings: OVCAR-4, Ovarian, NCI protocol
Method: as §1, §2

[29] = test system: OVCAR-8; experiment: as above; assay type: cell-based; settings: OVCAR-8, Ovarian, NCI protocol
Method: as §1, §2

[30] = test system: SK-OV-3; experiment: as above; assay type: cell-based; settings: SK-OV-3, Ovarian, NCI protocol
Method: as §1, §2

[31] = test system: A498; experiment: NCI sixty human tumor cell line screen, Renal panel; assay type: cell-based; settings: NCI protocol
Method: as §1, §2

[32] = test system: ACHN; experiment: as above; assay type: cell-based; settings: NCI protocol
Method: as §1, §2

[33] = test system: CAKI-1; experiment: as above; assay type: cell-based; settings: CAKI-1, Renal, NCI protocol
Method: as §1, §2

[34] = test system: RXF 393; experiment: as above; assay type: cell-based; settings: RXF 393, Renal, NCI protocol
Method: as §1, §2

[35] = test system: SN12C; experiment: as above; assay type: cell-based; settings: NCI protocol
Method: as §1, §2

[36] = test system: TK-10; experiment: as above; assay type: cell-based; settings: TK-10, Renal, NCI protocol
Method: as §1, §2

[37] = test system: UO-31; experiment: as above; assay type: cell-based; settings: UO-31, Renal, NCI protocol
Method: as §1, §2

[38] = test system: DU-145; experiment: NCI sixty human tumor cell line screen, Prostate panel; assay type: cell-based; settings: DU-145, Prostate, NCI protocol
Method: as §1, §2

[39] = test system: PC-3; experiment: as above; assay type: cell-based; settings: PC-3, Prostate, NCI protocol
Method: as §1, §2

[40] = test system: BT-549; experiment: NCI sixty human tumor cell line screen, Breast panel; assay type: cell-based; settings: BT-549, Breast, NCI protocol
Method: as §1, §2

[41] = test system: MDA-MB-31/ATCC; experiment: as above; assay type: cell-based; settings: NCI protocol
Method: as §1, §2

[42] = test system: MDA-MB-468; experiment: as above; assay type: cell-based; settings: MDA-MB-468, Breast, NCI protocol
Method: as §1, §2

[43] = test system: T-47D; experiment: as above; assay type: cell-based; settings: T47D, NCI protocol
Method: as §1, §2

COc1ccc(Nc2ncccc2C(=O)NCc2cn(Cc3cccc(Oc4ccccc4)c3)nn2)cc1 [Compound 1e, 2-(4-Methoxyphenylamino)-N-((1-(3-phenoxybenzyl)-1H-1,2,3-triazol-4-yl)methyl) nicotinamide]
GI50 [1]: 2.66 µM
GI50 [2]: 3.44 µM
GI50 [3]: 4.16 µM
GI50 [4]: 5.07 µM
GI50 [5]: 3.92 µM
GI50 [6]: 3.52 µM
GI50 [7]: 2.13 µM
GI50 [8]: 2.86 µM
GI50 [9]: 4.17 µM
GI50 [10]: 3.66 µM
GI50 [11]: 3.43 µM
GI50 [12]: 3.86 µM
GI50 [13]: 4.59 µM
GI50 [14]: 2.94 µM
GI50 [15]: 2.79 µM
GI50 [16]: 3.55 µM
GI50 [17]: 3.09 µM
GI50 [18]: 3.91 µM
GI50 [19]: 3.6 µM
GI50 [20]: 3.15 µM
GI50 [21]: 1.71 µM
GI50 [22]: 3.88 µM
GI50 [23]: 3.66 µM
GI50 [24]: 2.9 µM
GI50 [25]: 3.13 µM
GI50 [26]: 3.21 µM
GI50 [27]: 3.69 µM
GI50 [28]: 5.42 µM
GI50 [29]: 5.96 µM
GI50 [30]: 4.33 µM
GI50 [31]: 4.18 µM
GI50 [32]: 6.9 µM
GI50 [33]: 6.3 µM
GI50 [34]: 3.77 µM
GI50 [35]: 7.41 µM
GI50 [36]: 5.16 µM
GI50 [37]: 5.25 µM
GI50 [38]: 1.05 µM
GI50 [39]: 4.74 µM
GI50 [40]: 7.16 µM
GI50 [41]: 5.35 µM
GI50 [42]: 2.42 µM
GI50 [43]: 4.68 µM
melting point: 95 to 98 °C

COc1ccc(Nc2ncccc2C(=O)NCc2cn(Cc3cccc(Oc4ccccc4)c3)nn2)c(OC)c1 [Compound 1g, 2-(2,4-Dimethoxyphenylamino)-N-((1-(3-phenoxybenzyl)-1H-1,2,3-triazol-4-yl)methyl) nicotinamide]
GI50 [1]: 2.21 µM
GI50 [2]: 4.15 µM
GI50 [3]: 5.09 µM
GI50 [4]: 12.7 µM
GI50 [5]: 2.24 µM
GI50 [6]: 3.05 µM
GI50 [7]: 1.82 µM
GI50 [8]: 2.14 µM
GI50 [9]: 3.08 µM
GI50 [10]: 3.26 µM
GI50 [11]: 1.65 µM
GI50 [12]: 2.12 µM
GI50 [13]: 3.88 µM
GI50 [14]: 0.56 µM
GI50 [15]: 2.65 µM
GI50 [16]: 3.33 µM
GI50 [17]: 3.41 µM
GI50 [18]: 3.6 µM
GI50 [19]: 3.01 µM
GI50 [20]: 2.13 µM
GI50 [21]: 0.25 µM
GI50 [22]: 2.6 µM
GI50 [23]: 7.67 µM
GI50 [24]: 0.72 µM
GI50 [25]: 1.43 µM
GI50 [26]: 2.12 µM
GI50 [27]: 1.54 µM
GI50 [28]: 5.11 µM
GI50 [29]: 4.1 µM
GI50 [30]: 2.59 µM
GI50 [31]: 1.01 µM
GI50 [32]: 4.83 µM
GI50 [33]: 1.71 µM
GI50 [34]: 7.83 µM
GI50 [35]: 1.71 µM
GI50 [36]: 3.14 µM
GI50 [37]: 8.06 µM
GI50 [38]: 3.37 µM
GI50 [39]: 0.62 µM
GI50 [40]: 3.51 µM
GI50 [41]: 5.54 µM
GI50 [42]: 1.46 µM
GI50 [43]: 4.28 µM
melting point: 127 to 129 °C
